Measurements as given in patent US20240182453A1, “NOVEL SUBSTITUTED PYRAZINE-CARBOXAMIDE DERIVATIVES” (Boehringer Ingelheim International GmbH, priority 2022, published 2024).

Molecular target: human metabotropic Glutamate 4 receptor (mGluR4) (Homo sapiens (Human), UniProt Q14833)
Assay: Assay A: in vitro testing of mGluR4 potency (glutamate-induced cAMP lowering, HTRF cAMP)
Assay type: cell-based
Conditions: HEK293 cells overexpressing human mGluR4; 10 uM L-glutamic acid, 1 uM forskolin; compounds of the present invention
In short: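 HEK293 cells overexpressing human mGluR4 treated 30 min at room temperature with compound plus 10 uM L-glutamate, 1 uM forskolin, 0.5 mM IBMX, 0.1% BSA, 1% DMSO. cAMP read by HTRF (665/615 nm ratio), normalized to glutamate (100%) and no-glutamate (0%) controls as percent of control.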

Sequence of human metabotropic Glutamate 4 receptor (mGluR4) (Q14833 33-912): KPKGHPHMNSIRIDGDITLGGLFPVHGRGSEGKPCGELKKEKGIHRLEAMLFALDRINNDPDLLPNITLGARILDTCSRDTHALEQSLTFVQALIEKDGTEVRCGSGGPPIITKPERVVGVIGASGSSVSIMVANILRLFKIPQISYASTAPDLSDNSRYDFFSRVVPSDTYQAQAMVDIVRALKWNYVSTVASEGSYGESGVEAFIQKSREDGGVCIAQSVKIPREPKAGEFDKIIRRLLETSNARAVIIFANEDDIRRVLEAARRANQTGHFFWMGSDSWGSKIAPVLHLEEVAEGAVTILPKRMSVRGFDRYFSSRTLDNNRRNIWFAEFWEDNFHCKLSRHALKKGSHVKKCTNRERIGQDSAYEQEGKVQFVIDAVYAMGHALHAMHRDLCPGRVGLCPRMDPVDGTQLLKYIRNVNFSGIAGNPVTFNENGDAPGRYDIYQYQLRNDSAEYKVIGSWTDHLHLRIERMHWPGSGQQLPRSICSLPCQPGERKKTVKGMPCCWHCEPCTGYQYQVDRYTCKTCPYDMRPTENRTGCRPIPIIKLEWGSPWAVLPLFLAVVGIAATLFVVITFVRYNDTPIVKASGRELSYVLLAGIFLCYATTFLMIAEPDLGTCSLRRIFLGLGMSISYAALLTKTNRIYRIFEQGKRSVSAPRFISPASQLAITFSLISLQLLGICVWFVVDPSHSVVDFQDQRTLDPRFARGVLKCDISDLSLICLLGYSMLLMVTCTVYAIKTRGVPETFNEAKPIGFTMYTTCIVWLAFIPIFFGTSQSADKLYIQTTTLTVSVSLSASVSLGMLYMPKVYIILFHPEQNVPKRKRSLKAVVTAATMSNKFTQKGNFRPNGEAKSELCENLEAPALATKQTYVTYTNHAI

Structure (SMILES) | IC50 [nM]
CCn1c([C@@H](NC(=O)c2cnc(C)cn2)C(C)(C)O)nc2cc(F)c(F)cc21 [Example 50, N-[(1R)-1-(1-ethyl-5,6-difluoro-1H-1,3-benzodiazol-2-yl)-2-hydroxy-2-methylpropyl]-5-methylpyrazine-2-carboxamide] | 24
Cc1cnc(C(=O)N[C@H](c2nc3cc(F)ccc3n2C)C2CC2)cn1 [Example 51, N-[(S)-cyclopropyl(5-fluoro-1-methyl-1H-1,3-benzodiazol-2-yl)methyl]-5-methylpyrazine-2-carboxamide] | 28
Cc1cnc(C(=O)N[C@H](c2nc3cc(Br)c(F)cc3n2C)C2CC2)cn1 [Example 52, N-[(S)-(5-bromo-6-fluoro-1-methyl-1H-1,3-benzodiazol-2-yl) (cyclopropyl)methyl]-5-methylpyrazine-2-carboxamide] | 5
COCCn1c([C@@H](NC(=O)c2cnc(C(F)F)cn2)[C@H]2CCCO2)nc2cc(OC(F)(F)F)ccc21 [Example 53, 5-(difluoromethyl)-N-[(R)-[1-(2-methoxyethyl)-5-(trifluoromethoxy)-1H-1,3-benzodiazol-2-yl][(2R)-oxolaN-2-yl]methyl]pyrazine-2-carboxamide] | 6
COCCn1c([C@@H](NC(=O)c2cnc(C)cn2)C2CC2)nc2c(C)c(Br)ccc21 [Example 54, N-[(S)-[5-bromo-1-(2-methoxyethyl)-4-methyl-1H-1,3-benzodiazol-2-yl](cyclopropyl)methyl]-5-methylpyrazine-2-carboxamide] | 1
Cn1c([C@@H](NC(=O)c2cnc(C(F)F)cn2)C2CC2)nc2cc(Cl)ccc21 [Example 55, N-[(S)-(5-chloro-1-methyl-1H-1,3-benzodiazol-2-yl)(cyclopropyl)methyl]-5-(difluoromethyl)pyrazine-2-carboxamide] | 7
CCn1c([C@@H](NC(=O)c2cnc(C(F)F)cn2)C(C)(C)O)nc2cc(F)c(F)cc21 [Example 57, 5-(difluoromethyl)-N-[(1R)-1-(1-ethyl-5,6-difluoro-1H-1,3-benzodiazol-2-y1)-2-hydroxy-2-methylpropyl]pyrazine-2-carboxamide] | 19
COCCn1c([C@@H](NC(=O)c2cnc(C)cn2)[C@@H]2CCCO2)nc2cc(OC(F)(F)F)ccc21 [Example 58, N-[(R)-[1-(2-methoxyethyl)-5-(trifluoromethoxy)-1H-1,3-benzodiazol-2-yl][(2S)-oxolan-2-yl]methyl]-5-methylpyrazine-2-carboxamide] | 4
Cc1cnc(C(=O)N[C@H](c2nc3cc(C(F)(F)F)ccc3n2C)[C@@H](C)OC(F)F)cn1 [Example 61, N-[(1R,2R)-2-(difluoromethoxy)-1-[1-methyl-5-(trifluoromethyl)-1H-1,3-benzodiazol-2-yl]propyl]-5-methylpyrazine-2-carboxamide] | 8
COCCn1c([C@@H](NC(=O)c2cnc(C)cn2)[C@H]2CCOC2)nc2cc(OC(F)(F)F)ccc21 [Example 62, N-[(S)-[1-(2-methoxyethyl)-5-(trifluoromethoxy)-1H-1,3-benzodiazol-2-yl][(3R)-oxolan-3-yl]methyl]-5-methylpyrazine-2-carboxamide] | 9
Cc1cnc(C(=O)N[C@H](c2nc3ccc(C(F)(F)F)cc3n2C)C2CC2)cn1 [Example 63, N-[(S)-cyclopropyl[1-methyl-6-(trifluoromethyl)-1H-1,3-benzodiazol-2-yl]methyl]-5-methylpyrazine-2-carboxamide] | 14
Cc1cnc(C(=O)N[C@H](c2nc3cc(F)ccc3n2C)C(C)C)cn1 [Example 64, N-[(1S)-1-(5-fluoro-1-methyl-1H-1,3-benzodiazol-2-yl)-2-methylpropyl]-5-methylpyrazine-2-carboxamide] | 19
CCn1c([C@@H](NC(=O)c2cnc(C(F)F)cn2)C(C)(C)O)nc2cc(F)ccc21 [Example 65, 5-(difluoromethyl)-N-[(1R)-1-(1-ethyl-5-fluoro-1H-1,3-benzodiazol-2-yl)-2-hydroxy-2-methylpropyl]pyrazine-2-carboxamide] | 16
COCCn1c([C@@H](NC(=O)c2cnc(C)cn2)C2CC2)nc2cc(OC(F)F)c(F)cc21 [Example 67, N-[(S)-cyclopropyl[5-(difluoromethoxy)-6-fluoro-1-(2-methoxyethyl)-1H-1,3-benzodiazol-2-yl]methyl]-5-methylpyrazine-2-carboxamide] | 10
Cc1cnc(C(=O)N[C@H](c2nc3cc(Cl)ccc3n2C)[C@@H]2CCCO2)cn1 [Example 68, N-[(R)-(5-chloro-1-methyl-1H-1,3-benzodiazol-2-yl)[(2S)-oxolan-2-yl]methyl]-5-methylpyrazine-2-carboxamide] | 19
Cc1cnc(C(=O)N[C@H](c2nc3cc(F)ccc3n2CC(F)F)[C@@H](C)OC(F)F)cn1 [Example 69, N-[(1R,2R)-1-[1-(2,2-difluoroethyl)-5-fluoro-1H-1,3-benzodiazol-2-y1]-2-(difluoromethoxy)propyl]-5-methylpyrazine-2-carboxamide] | 18

Structure (SMILES) | IC50 [nM]
COCCn1c(C(NC(=O)c2cnc(C)cn2)C2CCCO2)nc2cc(C(F)(F)F)ccc21 (centres unmarked) [Example 71-3, N-{[1-(2-methoxyethyl)-5-(trifluoromethyl)-1H-1,3-benzodiazol-2-yl](oxolan-2-yl)methyl}-5-methylpyrazine-2-carboxamide] | 62
Cc1cnc(C(=O)N[C@H](c2nc3cc(Cl)ccc3n2C)C(C)C)cn1 [Example 72, N-[(1S)-1-(5-chloro-1-methyl-1H-1,3-benzodiazol-2-yl)-2-methylpropyl]-5-methylpyrazine-2-carboxamide] | 8
Cc1cnc(C(=O)N[C@H](c2nc3cc(F)ccc3n2C2CC2)C2CC2)cn1 [Example 73, N-[(S)-cyclopropyl (1-cyclopropyl-5-fluoro-1H-1,3-benzodiazol-2-yl)methyl]-5-methylpyrazine-2-carboxamide] | 18
Cc1cnc(C(=O)N[C@H](c2nc3cc(OC(F)(F)F)ccc3n2C)C2CC2)cn1 [Example 74, N-[(S)-cyclopropyl[1-methyl-5-(trifluoromethoxy)-1H-1,3-benzodiazol-2-yl]methyl]-5-methylpyrazine-2-carboxamide] | 6
Cc1cnc(C(=O)N[C@H](c2nc3cc(Cl)ccc3n2C)[C@@H]2CC2(F)F)cn1 [Example 76, N-[(S)-(5-chloro-1-methyl-1H-1,3-benzodiazol-2-yl)[(1S)-2,2-difluorocyclopropyl]methyl]-5-methylpyrazine-2-carboxamide] | 12
COCCn1c([C@@H](NC(=O)c2cnc(C(F)F)cn2)[C@H]2CCOC2)nc2cc(OC(F)(F)F)ccc21 [Example 77, 5-(difluoromethyl)-N-[(S)-[1-(2-methoxyethyl)-5-(trifluoromethoxy)-1H-1,3-benzodiazol-2-yl][(3R)-oxolan-3-yl]methyl]pyrazine-2-carboxamide] | 12
Cc1cnc(C(=O)N[C@H](c2nc3cc(OC(F)(F)F)ccc3n2C)[C@@H]2CCCOC2)cn1 [Example 78, 5-methyl-N-[(S)-[1-methyl-5-(trifluoromethoxy)-1H-1,3-benzodiazol-2-yl][(3S)-oxan-3-yl]methyl]pyrazine-2-carboxamide] | 13
COCCn1c([C@@H](NC(=O)c2cnc(C)cn2)[C@@H](C)OC(F)F)nc2cc(OC(F)F)ccc21 [Example 79, N-[(1R,2R)-2-(difluoromethoxy)-1-[5-(difluoromethoxy)-1-(2-methoxyethyl)-1H-1,3-benzodiazol-2-yl]propyl]-5-methylpyrazine-2-carboxamide] | 19
CO[C@H](C)[C@H](NC(=O)c1cnc(C(F)F)cn1)c1nc2cc(OC(F)F)ccc2n1C [Example 80, N-[(1R,2R)-1-[5-(difluoromethoxy)-1-methyl-1H-1,3-benzodiazol-2-yl]-2-methoxypropyl]-5-(difluoromethyl)pyrazine-2-carboxamide] | 29
CCn1c([C@@H](NC(=O)c2cnc(C)cn2)C(C)(C)O)nc2cc(Cl)ccc21 [Example 81, N-[(1R)-1-(5-chloro-1-ethyl-1H-1,3-benzodiazol-2-yl)-2-hydroxy-2-methylpropyl]-5-methylpyrazine-2-carboxamide] | 14
Cc1cnc(C(=O)N[C@H](c2nc3cc(C(F)(F)F)ccc3n2C)[C@H]2CCCOC2)cn1 [Example 82, 5-methyl-N-[(S)-[1-methyl-5-(trifluoromethyl)-1H-1,3-benzodiazol-2-yl][(3R)-oxan-3-yl]methyl]pyrazine-2-carboxamide] | 13
CC(C)(O)[C@H](NC(=O)c1cnc(C(F)F)cn1)c1nc2cc(F)ccc2n1CC(F)F [Example 83, N-[(1R)-1-[1-(2,2-difluoroethyl)-5-fluoro-1H-1,3-benzodiazol-2-yl]-2-hydroxy-2-methylpropyl]-5-(difluoromethyl)pyrazine-2-carboxamide] | 38
Cc1cnc(C(=O)N[C@H](c2nc3cc(F)ccc3n2C(C)C)[C@H]2CCOC2)cn1 [Example 84, N-[(S)-[5-fluoro-1-(propan-2-yl)-1H-1,3-benzodiazol-2-yl][(3R)-oxolan-3-yl]methyl]-5-methylpyrazine-2-carboxamide] | 26
CO[C@H](C)[C@H](NC(=O)c1cnc(C)cn1)c1nc2cc(F)c(F)cc2n1C [Example 85, N-[(1R,2R)-1-(5,6-difluoro-1-methyl-1H-1,3-benzodiazol-2-yl)-2-methoxypropyl]-5-methylpyrazine-2-carboxamide] | 48
Cc1cnc(C(=O)N[C@@H](CC2CC2)c2nc3cc(Cl)ccc3n2C)cn1 [Example 86, N-[(1S)-1-(5-chloro-1-methyl-1H-1,3-benzodiazol-2-yl)-2-cyclopropylethyl]-5-methylpyrazine-2-carboxamide] | 10
COCCn1c([C@@H](NC(=O)c2cnc(C)cn2)[C@H]2CCOC2)nc2cc(C(F)(F)F)ccc21 [Example 87, N-[(S)-[1-(2-methoxyethyl)-5-(trifluoromethyl)-1H-1,3-benzodiazol-2-yl][(3R)-oxolan-3-yl]methyl]-5-methylpyrazine-2-carboxamide] | 12
